Like-named read-outs stand apart in the source and are kept apart here.
Columns and labels:
SARS-Cov-2 3CLpro = SARS-Cov-2 3CLpro (Severe acute respiratory syndrome coronavirus 2, UniProt P0DTD1); assay: biochemical; conditions: Table A, read-out: SARS-Cov-2 (IC50)
in vitro = conditions: human
[1] = tested on: SARS-CoV-2 B.1.1.7 lineage; assay: microbe, parasite or virus in culture; type: cell-based; conditions: Severe acute respiratory syndrome coronavirus 2, Table C, SARS-CoV-2 B.1.1.7 in A549-dual_ACE2_TMPRSS2 cells, read-out: A549-dual_ACE2_TMPRSS2 (EC50)

| Structure (SMILES) | IC50 (SARS-Cov-2 3CLpro; class symbols) [nM] | CC50 (in vitro) [nM] | EC50 ([1]; class symbols) [nM] | EC50 ([1]; cells given as a bound) [nM] | IC50 (SARS-Cov-2 3CLpro; cells given as a bound) [nM] |
| --- | --- | --- | --- | --- | --- |
| CN(C(=O)[C@@H](NC(=O)C(F)(F)F)C12CC(C1)C2)[C@@H](CC1CC1)C(=O)N1C[C@@]2(C[C@H]1C#N)Oc1cccnc1NC2=O [Compound 217] | < 20 | > 1000 | 100 to 1000 |  |  |
| C[C@H](NC(=O)C12CC(C1)C2)C(=O)N(C)[C@@H](CC1CC1)C(=O)N1C[C@@]2(C[C@H]1C#N)Oc1cccnc1NC2=O [Compound 216] | < 20 | > 1000 | 100 to 1000 |  |  |
| CC(C)C[C@@H](C(=O)N1C[C@@]2(CCCNC2=O)C[C@H]1C#N)N(C)C(=O)[C@H](C)NC(=O)C(F)(F)F [Compound 9, (S)—N—((S)-1-((3S,5R)-3-cyano-6-oxo-2,7-diazaspiro[4.5]decan-2-yl)-4-methyl-1-oxopentan-2-yl)-N-methyl-2-(2,2,2-trifluoroacetamido)propanamide] | 20000 to 100000 | > 1000 | 1000 to 10000 |  |  |
| C[C@H](NC(=O)C(F)(F)F)C(=O)N[C@@H](CC(C)(C)C)C(=O)N1C[C@@]2(C[C@H]1C#N)Oc1cc(F)cc(F)c1NC2=O [Compound 68] | 20 to 200 | > 1000 |  | > 1000 |  |
| CO[C@H](C)[C@H](NC(=O)C(F)(F)F)C(=O)N(C)[C@@H](CC1CC1)C(=O)N1C[C@@]2(C[C@H]1C#N)Oc1ncccc1NC2=O [Compound 240] | < 20 |  |  |  |  |
| CN(C(=O)[C@H](CC1CC1)NC(=O)C(F)(F)C(F)(F)F)[C@@H](CC1CC1)C(=O)N1C[C@@]2(C[C@H]1C#N)Oc1ccccc1CNC2=O [Compound 162] | < 20 | > 1000 | < 100 |  |  |
| CN(C(=O)[C@@H]1CC[C@@H](c2ccccc2)N1C)[C@@H](CC1CC1)C(=O)N1C[C@@]2(C[C@H]1C#N)Oc1cc(F)cc(F)c1NC2=O [Compound 153] | 20 to 200 | > 1000 | 100 to 1000 |  |  |
| CN(C(=O)c1cc2ccccc2c(=O)[nH]1)[C@@H](CC1CC1)C(=O)N1C[C@@]2(C[C@H]1C#N)Oc1cccnc1NC2=O [Compound 237] | 200 to 2000 |  |  |  |  |
| CC(C)C[C@@H](C(=O)N1C[C@]2(C[C@H]1C#N)C(=O)NC(=O)N2C)N(C)C(=O)[C@H](C)NC(=O)C(F)(F)F [Compound 10, (S)—N—((S)-1-((5R,8S)-8-cyano-1-methyl-2,4-dioxo-1,3,7-triazaspiro[4.4]nonan-7-yl)-4-methyl-1-oxopentan-2-yl)-N-methyl-2-(2,2,2-trifluoroacetamido)propanamide] | 200 to 2000 | > 1000 | 1000 to 10000 |  |  |
| CC([C@H](NC(=O)C(F)(F)F)C(=O)N(C)[C@@H](CC1CC1)C(=O)N1C[C@@]2(C[C@H]1C#N)Oc1cccnc1NC2=O)C(C)(C)C (stereo partly drawn) [Compound 234] | < 20 |  |  |  |  |
| CC(C)C[C@H](C(=O)N1C[C@@]2(C[C@H]1C#N)Oc1ccc(F)cc1NC2=O)N(C)C(=O)[C@H](C)NC(=O)C(F)(F)F [Compound 14b, (S)—N—((R)-1-((2R,5'S)-5′-cyano-6-fluoro-3-oxo-3,4-dihydrospiro[benzo[b][1,4]oxazine-2,3′-pyrrolidin]-1′-yl)-4-methyl-1-oxopentan-2-yl)-N-methyl-2-(2,2,2-trifluoroacetamido)propanamide] |  | > 1000 |  | > 1000 |  |
| CN(C(=O)[C@H](CC1CC1)NC(=O)c1ccc(F)cc1)[C@@H](CC1CC1)C(=O)N1C[C@@]2(C[C@H]1C#N)Oc1ccccc1CNC2=O [Compound 161] | < 20 | > 1000 | < 100 |  |  |
| CC(C)C[C@@H](C(=O)N1CC2(C[C@H]1C#N)Cn1nccc1NC2=O)N(C)C(=O)[C@H](C)NC(=O)C(F)(F)F (stereo partly drawn) [Example 40, (2S)—N-((2S)-1-((5'S)-5′-cyano-5-oxo-4,5-dihydro-7H-spiro[pyrazolo[1,5-a]pyrimidine-6,3′-pyrrolidin]-1′-yl)-4-methyl-1-oxopentan-2-yl)-N-methyl-2-(2,2,2-trifluoroacetamido)propanamide] | 200 to 2000 | > 1000 |  | > 1000 |  |
| C[C@H](NC(=O)C(F)(F)F)C(=O)N(C)[C@@H](CC1CC1)C(=O)N1C[C@@]2(C[C@H]1C#N)Oc1c(cccc1OC(F)(F)F)NC2=O [Compound 235] | < 20 |  |  |  |  |
| CN(C(=O)[C@@H](NC(=O)C(F)(F)F)C1CCCC1)[C@@H](CC1CC1)C(=O)N1C[C@@]2(C[C@H]1C#N)Oc1cccnc1NC2=O [Compound 218] | < 20 | > 1000 | < 100 |  |  |
| CN(C(=O)[C@H](CC1CC1)NC(=O)C(F)(F)F)[C@@H](CC1CC1)C(=O)N1C[C@@]2(C[C@H]1C#N)Sc1ccccc1NC2=O [Example 39, (S)—N—((S)-1-((2R,5'S)-5′-cyano-3-oxo-3,4-dihydrospiro[benzo[b][1,4]thiazine-2,3′-pyrrolidin]-1′-yl)-3-cyclopropyl-1-oxopropan-2-yl)-3-cyclopropyl-N-methyl-2-(2,2,2-trifluoroacetamido)propanamide] | < 20 | > 1000 | < 100 |  |  |
| CC(C)C[C@@H](C(=O)N1CC2(C[C@H]1C#N)C(=O)Nc1ccnn12)N(C)C(=O)[C@H](C)NC(=O)C(F)(F)F (stereo partly drawn) [Example 7, (2S)—N-[(2S)-1-[(5'S)-5′-cyano-2-oxo-1H-spiro[pyrazolo[1,5-a]imidazole-3,3′-pyrrolidin]-1′-yl]-4-methyl-1-oxopentan-2-yl]-N-methyl-2-(2,2,2-trifluoroacetamido)propanamide] | 20 to 200 | > 1000 | 1000 to 10000 |  |  |

| Structure (SMILES) | IC50 (SARS-Cov-2 3CLpro; class symbols) [nM] | CC50 (in vitro) [nM] | EC50 ([1]; class symbols) [nM] | EC50 ([1]; cells given as a bound) [nM] | IC50 (SARS-Cov-2 3CLpro; cells given as a bound) [nM] |
| --- | --- | --- | --- | --- | --- |
| [2H]C([2H])([2H])N(C(=O)[C@H](C)NC(=O)C(F)(F)F)[C@@H](CC(C)C)C(=O)N1C[C@@]2(C[C@H]1C#N)Oc1cc(F)cc(F)c1NC2=O [Compound 109] | < 20 | > 1000 | 100 to 1000 |  |  |
| CN(C(=O)[C@@H](Cc1cccnc1)NC(=O)C(F)(F)F)[C@@H](CC1CC1)C(=O)N1C[C@@]2(C[C@H]1C#N)Oc1cccnc1NC2=O [Compound 151] | < 20 | > 1000 | 100 to 1000 |  |  |
| CO[C@H](C)[C@H](NC(=O)C(F)(F)F)C(=O)N(C)[C@@H](CC1CC1)C(=O)N1C[C@@]2(C[C@H]1C#N)Oc1cccnc1NC2=O [Compound 239] | < 20 |  |  |  |  |
| CN(C(=O)[C@H](CC1CC1)NC(=O)C(F)(F)Cl)[C@@H](CC1CC1)C(=O)N1C[C@@]2(C[C@H]1C#N)Oc1ncccc1NC2=O [Compound 238] | < 20 |  |  |  |  |
| CC(C)C[C@@H](C(=O)N1C[C@@]2(C[C@H]1C#N)Oc1ccc(F)cc1NC2=O)N(C)C(=O)[C@H](C)NC(=O)C(F)(F)F [Compound 14a, (S)—N—((S)-1-((2R,5'S)-5′-cyano-6-fluoro-3-oxo-3,4-dihydrospiro[benzo[b][1,4]oxazine-2,3′-pyrrolidin]-1′-yl)-4-methyl-1-oxopentan-2-yl)-N-methyl-2-(2,2,2-trifluoroacetamido)propanamide] |  | > 1000 | 100 to 1000 |  |  |
| CC(C)C[C@@H](C(=O)N1CC2(C[C@H]1C#N)Cn1nc(Br)cc1NC2=O)N(C)C(=O)[C@H](C)NC(=O)C(F)(F)F (stereo partly drawn) [Example 41, (2S)—N-((2S)-1-((5'S)-2-bromo-5′-cyano-5-oxo-4,5-dihydro-7H-spiro[pyrazolo[1,5-a]pyrimidine-6,3′-pyrrolidin]-1′-yl)-4-methyl-1-oxopentan-2-yl)-N-methyl-2-(2,2,2-trifluoroacetamido)propanamide] | 200 to 2000 | > 1000 |  | > 1000 |  |
| CN(C(=O)c1cnc(-c2ccccc2)[nH]1)[C@@H](CC1CC1)C(=O)N1C[C@@]2(C[C@H]1C#N)Oc1cccnc1NC2=O [Compound 211] | 20 to 200 | > 1000 | 100 to 1000 |  |  |
| CN(C(=O)[C@@H](Cc1ccncc1)NC(=O)C(F)(F)F)[C@@H](CC1CC1)C(=O)N1C[C@@]2(C[C@H]1C#N)Oc1cccnc1NC2=O [Compound 148] | < 20 | > 1000 |  | > 1000 |  |
| C[C@H](NC(=O)C(F)(F)F)C(=O)N[C@@H](CC1CC1)C(=O)N1C[C@@]2(C[C@H]1C#N)Oc1cccnc1NC2=O [Compound 180] | 200 to 2000 | > 1000 |  | > 1000 |  |
| CN(C(=O)[C@H](CCCN)NC(=O)C(F)(F)F)[C@@H](CC1CC1)C(=O)N1C[C@@]2(C[C@H]1C#N)Oc1cccnc1NC2=O [Compound 236] | < 20 |  |  |  |  |
| CN(C(=O)[C@H](CC1CC1)NC(=O)C(F)(F)F)[C@@H](CC1CC1)C(=O)N1C[C@@]2(C[C@@H]1C#N)C(=O)NCc1ccccc12 (single isomer, unassigned) [Compound 123] |  |  |  |  | > 2000 |
| C[C@H](NC(=O)C1(C)CCC1)C(=O)N(C)[C@@H](CC1CC1)C(=O)N1C[C@@]2(C[C@H]1C#N)Oc1cccnc1NC2=O [Compound 212] | < 20 | > 1000 | 100 to 1000 |  |  |
| CN(C(=O)c1nnc(-c2ccccc2)[nH]1)[C@@H](CC1CC1)C(=O)N1C[C@@]2(C[C@H]1C#N)Oc1cccnc1NC2=O [Compound 210] | 200 to 2000 | > 1000 |  | > 1000 |  |
| CC(C)C[C@@H](C(=O)N1C[C@]2(CC(C(C)C)NC2=O)C[C@H]1C#N)N(C)C(=O)[C@H](C)NC(=O)C(F)(F)F (stereo partly drawn) [Example 38] | < 20 | > 1000 | 100 to 1000 |  |  |
| COc1cccc(C[C@@H](NC(=O)C(F)(F)F)C(=O)N(C)[C@@H](CC2CC2)C(=O)N2C[C@@]3(C[C@H]2C#N)Oc2cccnc2NC3=O)c1 [Compound 152] | < 20 | > 1000 | < 100 |  |  |
| CN(C(=O)[C@@H](CC1CCCCC1)NC(=O)C(F)(F)F)[C@@H](CC1CC1)C(=O)N1C[C@@]2(C[C@H]1C#N)Oc1cccnc1NC2=O [Compound 145] | < 20 | > 1000 | < 100 |  |  |

Source: patent publication US20240199647A1, “ANTI-VIRAL COMPOUNDS” (Aligos Therapeutics, Inc., priority 2022, published 2024)
